Experimental data: patent US20100324290A1, “CRYSTALLINE FORM I OF LAMIVUDINE AND ITS PREPARATION” (RANBAXY LABORATORIES LIMITED, priority 2007, published 2010)
Like-named read-outs stand apart in the source and are kept apart here.

Key:
[1] = Storage stability of crystalline Form I (solid form after storage, XRPD); assay type: physicochemical
From the text: (§1) XRPD of the samples were obtained by using Panalytical X′Pert Pro X-Ray Powder Diffractometer in the range 3-40 degree 2 theta and under tube voltage and current of 45 Kv and 40 mA respectively. Copper radiation of wavelength 1.54 angstrom and Xceletor detector was used. Form II of lamivudine: Not detectable (Limit of detection: 0.5% by XRPD) The stable crystalline Form I of lamivudine obtained from Example 2 was subjected to the following conditions: […]

[2] = Stability of crystalline Form I to milling (solid form after milling, XRPD); assay type: physicochemical
From the text: as §1, with “In one aspect, a stable crystalline Form I of lamivudine is provided. […] The term milling refers to an act or process of grinding, crushing, pulverizing, powdering, atomizing, pestling, levigating, sifting, sieving, size reducing, or passing through a milling device. […] XRPD of” for “XRPD of”

[3] = during milling and formulation operation; prior-art Form I per WO 2007/119248; cited from earlier work

SMILES	Resultant Material after storage ([1]; Stored at 25 ± 2° C. at 60 ± 5% RH for 3 months)	Resultant Material after storage ([1]; Stored at 40 ± 2° C. at 75 ± 5% RH for 1 month)	Resultant Material after storage ([1]; Stored at 40 ± 2° C. at 75 ± 5% RH for 2 months)	Resultant Material after storage ([1]; Stored at 40 ± 2° C. at 75 ± 5% RH for 3 months)	Solid-form stability on storage ([1]; stored up to three months at a temperature up to about 45° C. and at a relative humidity of about 25% to about 85%)	Resultant Material after milling ([2]; Milled in a multimill (2 mm mesh size))	Conversion of solid form on milling ([2]; pharmaceutical operations such as milling)	Conversion of solid form on milling [3]
Nc1ccn([C@@H]2CS[C@H](CO)O2)c(=O)n1 [Form I obtained from Example 2, (2R,cis)-4-amino-1-(2-hydroxymethyl-1,3-oxathiolan-5-yl)-(1H)-pyrimidin-2-one]	Form I	Form I	Form I	Form I	remains stable	Form I	does not convert to Form II	
Nc1ccn([C@@H]2CS[C@H](CO)O2)c(=O)n1 [Form I, (2R,cis)-4-amino-1-(2-hydroxymethyl-1,3-oxathiolan-5-yl)-(1H)-pyrimidin-2-one]								converts to Form II
